Source: ChEMBL document CHEMBL5543111, “Uncovering PROTAC Sensitivity and Efficacy by Multidimensional Proteome Profiling: A Case for STAT3” (J Med Chem, 2024)
The source made the active and inactive calls.

Experiments:
[1] = biological target: Protein cereblon/Bromodomain-containing protein 3 (Homo sapiens) (UniProt Q15059+Q96SW2); experiment: PROTAC activity at CRBN/BRD3 in human A549 cells assessed as degradation of BRD3 protein level at 100 nM incubated for 24 hrs; assay type: cell-based
A549 [2] = experiment: Upregulation of p53 protein expression in human A549 cells measured after 3 to 24 hrs; assay type: functional, cell-based; conditions: dose 10-100 nM, time 3-24 hrs
A549 [3] = experiment: Upregulation of p53 protein expression in human A549 cells at 10 to 100 nM; assay type: functional, cell-based; conditions: dose 10-100 nM, time 3-24 hrs, TDE = time-dependent effect
A549 [4] = experiment: Upregulation of p21 protein expression in human A549 cells at 100 nM measured after 24 hrs; assay type: functional, cell-based
[5] = biological target: Protein cereblon/Bromodomain-containing protein 2 (Homo sapiens) (UniProt P25440+Q96SW2); experiment: PROTAC activity at CRBN/BRD2 in human A549 cells assessed as degradation of BRD2 protein level at 100 nM incubated for 24 hrs; assay type: cell-based
[6] = biological target: Protein cereblon/Bromodomain-containing protein 4 (Homo sapiens) (UniProt O60885+Q96SW2); experiment: PROTAC activity at CRBN/BRD4 in human A549 cells assessed as degradation of BRD4 protein level at 100 nM incubated for 24 hrs; assay type: cell-based

Measured: Activity

Protein cereblon/Bromodomain-containing protein 4 (Homo sapiens), sequence (Q96SW2 whole entry, looked up, other chains not shown): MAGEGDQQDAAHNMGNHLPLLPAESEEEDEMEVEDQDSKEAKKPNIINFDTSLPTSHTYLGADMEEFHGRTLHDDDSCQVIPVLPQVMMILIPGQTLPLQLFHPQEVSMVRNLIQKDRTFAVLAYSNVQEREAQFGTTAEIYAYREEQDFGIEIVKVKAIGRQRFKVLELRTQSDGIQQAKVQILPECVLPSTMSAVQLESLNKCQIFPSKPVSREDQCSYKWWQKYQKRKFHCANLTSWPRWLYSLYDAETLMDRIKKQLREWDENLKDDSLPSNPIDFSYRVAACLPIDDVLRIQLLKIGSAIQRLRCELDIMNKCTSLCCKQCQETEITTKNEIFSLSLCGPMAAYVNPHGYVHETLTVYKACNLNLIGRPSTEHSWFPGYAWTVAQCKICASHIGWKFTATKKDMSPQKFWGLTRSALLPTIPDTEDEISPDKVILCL
Protein cereblon/Bromodomain-containing protein 2 (Homo sapiens), sequence (P25440 whole entry, looked up): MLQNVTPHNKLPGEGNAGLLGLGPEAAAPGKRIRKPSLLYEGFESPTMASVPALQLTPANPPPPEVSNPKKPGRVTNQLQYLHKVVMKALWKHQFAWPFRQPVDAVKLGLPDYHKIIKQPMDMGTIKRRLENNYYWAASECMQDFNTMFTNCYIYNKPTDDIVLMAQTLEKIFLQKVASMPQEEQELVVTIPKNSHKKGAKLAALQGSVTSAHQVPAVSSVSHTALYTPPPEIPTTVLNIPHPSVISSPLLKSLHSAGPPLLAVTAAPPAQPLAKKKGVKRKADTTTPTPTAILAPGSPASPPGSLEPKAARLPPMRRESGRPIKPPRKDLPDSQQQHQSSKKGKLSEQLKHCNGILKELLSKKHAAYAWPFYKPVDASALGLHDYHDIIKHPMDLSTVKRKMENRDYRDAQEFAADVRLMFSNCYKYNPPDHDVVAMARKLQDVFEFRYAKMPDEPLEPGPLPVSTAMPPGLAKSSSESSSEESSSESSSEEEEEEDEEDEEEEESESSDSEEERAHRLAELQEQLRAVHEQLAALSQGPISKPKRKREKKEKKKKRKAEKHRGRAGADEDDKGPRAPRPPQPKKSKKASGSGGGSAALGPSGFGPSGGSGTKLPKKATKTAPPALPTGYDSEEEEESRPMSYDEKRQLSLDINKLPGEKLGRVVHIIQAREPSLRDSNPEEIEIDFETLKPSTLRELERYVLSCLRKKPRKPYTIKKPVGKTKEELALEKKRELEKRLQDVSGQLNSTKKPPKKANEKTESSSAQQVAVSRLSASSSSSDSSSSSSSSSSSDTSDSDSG
Protein cereblon/Bromodomain-containing protein 2 (Homo sapiens), sequence (Q96SW2 whole entry, looked up): as the sequence (Q96SW2 whole entry, looked up, other chains not shown) above
Protein cereblon/Bromodomain-containing protein 3 (Homo sapiens), sequence (Q15059 2-726 limits assumed): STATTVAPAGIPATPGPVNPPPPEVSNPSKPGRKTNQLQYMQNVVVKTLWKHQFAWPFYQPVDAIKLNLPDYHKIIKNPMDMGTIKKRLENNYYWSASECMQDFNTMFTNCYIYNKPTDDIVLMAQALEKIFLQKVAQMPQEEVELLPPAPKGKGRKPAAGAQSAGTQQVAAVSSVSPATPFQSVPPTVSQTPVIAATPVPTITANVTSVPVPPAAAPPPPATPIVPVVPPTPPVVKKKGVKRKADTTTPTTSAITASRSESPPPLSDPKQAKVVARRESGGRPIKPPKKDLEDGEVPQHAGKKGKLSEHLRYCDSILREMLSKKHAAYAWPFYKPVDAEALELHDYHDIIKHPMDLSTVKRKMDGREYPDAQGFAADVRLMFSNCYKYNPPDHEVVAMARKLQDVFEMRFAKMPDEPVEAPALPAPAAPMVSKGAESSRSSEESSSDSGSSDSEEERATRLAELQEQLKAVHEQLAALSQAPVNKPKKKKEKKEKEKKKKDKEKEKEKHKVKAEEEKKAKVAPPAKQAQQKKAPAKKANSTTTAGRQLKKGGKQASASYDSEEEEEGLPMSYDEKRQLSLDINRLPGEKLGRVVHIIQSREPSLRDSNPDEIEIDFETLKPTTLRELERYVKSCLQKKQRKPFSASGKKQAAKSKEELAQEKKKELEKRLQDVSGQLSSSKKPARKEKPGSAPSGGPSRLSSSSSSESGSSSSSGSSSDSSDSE
Protein cereblon/Bromodomain-containing protein 3 (Homo sapiens), sequence (Q96SW2 whole entry partner): as the sequence (Q96SW2 whole entry, looked up, other chains not shown) above

CCn1nc(C2CC2)cc1Nc1nc(C(=O)NCCCCCc2cccc3c2CN(C2CCC(=O)NC2=O)C3=O)nc2[nH]c3cc(-c4c(C)noc4C)c(OC)cc3c12 (stereo unspecified)
active: [1] | A549 [2] Dose-Dependent Effect | A549 [3] Tde | A549 [4] | [5] | [6]
